From patent publication US20260007675A1, “TARGETING CHROMATIN REGULATORS INHIBITS LEUKEMOGENIC GENE EXPRESSION IN NPM1 MUTANT LEUKEMIA” (MEMORIAL SLOAN KETTERING CANCER CENTER, priority 2016, published 2026)

What was measured:
OCI-AML3 cells [1] = experiment: Cell viability / proliferation assay in OCI-AML3 cells; type: cell-based, human
Description: (§1) Proliferation assays were performed as previously described. Viable cell counts were determined by flow cytometry using Sytox Blue (Invitrogen) or DAPI viability stains.

HL-60 cells = experiment: Cell viability / proliferation assay in HL-60 cells; type: cell-based, human
Description: as §1

[2] = system: HOX, MEIS1 and FLT3 expression in OCI-AML3 cells; experiment: Gene expression (quantitative PCR / RNA sequencing) in OCI-AML3 cells; type: cell-based, human
[3] = system: Npm1CA/+RosaSB/+ and Npm1CA/+Flt3ITD/+ leukemia cells; experiment: Colony forming and liquid culture proliferation assays in murine NPM1mut leukemia cells; type: cell-based; details: EPZ4777 10 μM
Description: For drug testing experiments, leukemic blasts were harvested from moribund primarily transplanted mice and cultured in vitro.
as §1
RNA and DNA purification, cDNA synthesis, quantitative real-time (qRT-) PCR, western blotting, flow cytometry, colony forming assays, viral transduction and shRNA based knock down experiments were performed using standard procedures. Primer sequences, western antibodies, and plasmids are also listed in the supplement.

[4] = system: Hoxa9-Meis1 transformed cells; experiment: Colony forming assay in Hoxa9-Meis1 transformed cells; type: cell-based, murine; details: Hoxa9-Meis1 in vitro transformed cells, EPZ4777 10 μM
[5] = system: menin, H3K4me3 and H3K79me2 at HOX and MEIS1 loci in OCI-AML3 cells; experiment: Chromatin immunoprecipitation-qPCR and immunoblotting of chromatin marks in OCI-AML3 cells; type: cell-based, human; details: OCI-AML3, EPZ4777 10 μM
[6] = system: Npm1CA/+RosaSB/+ leukemia cells; experiment: Transplantation of ex vivo pretreated Npm1CA/+RosaSB/+ leukemia cells (leukemia initiating potential); type: in vivo, mice; details: for survival compared to vehicle control: pretreated Npm1CA/+RosaSB/+ cells, single compound
Description: As HOX gene expression is associated with self-renewal properties, the inventors next determined whether pharmacological DOT1L inhibition inhibits NPM1^mut leukemia initiation in mice. Murine Npm1^CA/+Rosa^SB/+ leukemia cells were treated ex vivo with EPZ4777 or drug vehicle for 10 days and equal numbers of viable cells were transplanted into sublethally irradiated recipient animals.
Npm1^CA/+Flt3^ITD/+ and Npm1^CA/+Rosa^SB/+ cells were harvested from moribund leukemic animals and transplanted into primary and secondary recipient mice as previously described. […] All transplantation experiments with ex vivo treated cells were performed as secondary transplantations.

DOT1L = DOT1L (Homo sapiens (Human), UniProt Q8TEK3); details: cited from earlier work
OCI-AML3 cells [7] = experiment: Cell differentiation by CD11b flow cytometry in OCI-AML3 cells; type: cell-based, human; details: OCI-AML3, MI-2-2 12 μM, day seven of treatment
OCI-AML3 cells [8] = experiment: OCI-AML3 xenotransplantation model in NSG mice; type: in vivo; details: MI-503 50 mg/kg bid IP, versus vehicle
[9] = OCI-AML3, 4 days of MI-2-2 treatment (12 μM)

Sequence of DOT1L (Q8TEK3 whole entry): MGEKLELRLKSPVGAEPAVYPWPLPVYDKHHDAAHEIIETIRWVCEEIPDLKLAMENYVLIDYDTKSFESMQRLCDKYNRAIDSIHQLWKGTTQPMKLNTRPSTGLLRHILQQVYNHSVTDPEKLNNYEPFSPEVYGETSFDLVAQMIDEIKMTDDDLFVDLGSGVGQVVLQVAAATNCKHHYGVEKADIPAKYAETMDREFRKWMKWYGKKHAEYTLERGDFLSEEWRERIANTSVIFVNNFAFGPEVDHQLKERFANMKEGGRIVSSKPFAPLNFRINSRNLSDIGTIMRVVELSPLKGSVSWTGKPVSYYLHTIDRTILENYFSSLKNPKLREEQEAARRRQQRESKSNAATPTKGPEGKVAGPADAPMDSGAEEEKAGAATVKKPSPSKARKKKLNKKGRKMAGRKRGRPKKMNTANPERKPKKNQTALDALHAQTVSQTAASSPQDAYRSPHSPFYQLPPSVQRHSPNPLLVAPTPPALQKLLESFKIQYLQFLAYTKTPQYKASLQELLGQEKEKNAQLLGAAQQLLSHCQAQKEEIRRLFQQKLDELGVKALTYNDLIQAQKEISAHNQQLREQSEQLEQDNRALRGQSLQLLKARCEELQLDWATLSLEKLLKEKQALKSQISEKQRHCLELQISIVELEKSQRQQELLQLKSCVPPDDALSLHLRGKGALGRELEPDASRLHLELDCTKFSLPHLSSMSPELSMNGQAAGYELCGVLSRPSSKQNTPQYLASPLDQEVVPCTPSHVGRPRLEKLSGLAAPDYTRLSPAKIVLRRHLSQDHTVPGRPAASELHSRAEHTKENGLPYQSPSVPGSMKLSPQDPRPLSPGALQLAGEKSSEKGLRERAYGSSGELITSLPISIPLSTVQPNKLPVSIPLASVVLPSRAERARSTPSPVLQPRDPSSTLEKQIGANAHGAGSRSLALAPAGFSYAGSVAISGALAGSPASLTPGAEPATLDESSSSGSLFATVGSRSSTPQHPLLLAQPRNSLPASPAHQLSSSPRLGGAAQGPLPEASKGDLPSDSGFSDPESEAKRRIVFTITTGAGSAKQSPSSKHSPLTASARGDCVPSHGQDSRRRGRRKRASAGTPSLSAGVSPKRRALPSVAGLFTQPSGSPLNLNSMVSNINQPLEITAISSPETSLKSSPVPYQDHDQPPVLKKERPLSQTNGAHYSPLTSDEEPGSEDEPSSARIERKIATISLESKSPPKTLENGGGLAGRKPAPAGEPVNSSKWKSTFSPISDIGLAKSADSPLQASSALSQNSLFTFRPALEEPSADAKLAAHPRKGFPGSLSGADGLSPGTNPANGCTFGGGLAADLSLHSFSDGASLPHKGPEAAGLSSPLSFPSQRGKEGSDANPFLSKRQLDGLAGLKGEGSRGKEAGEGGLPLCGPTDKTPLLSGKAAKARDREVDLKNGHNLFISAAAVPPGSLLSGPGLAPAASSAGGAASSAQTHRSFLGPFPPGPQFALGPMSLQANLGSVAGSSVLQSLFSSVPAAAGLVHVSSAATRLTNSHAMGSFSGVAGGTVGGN

SMILES	cell proliferation (OCI-AML3 cells [1]; human NPM1mut leukemia cells (OCI-AML3), EPZ4777 10 μM)	cell proliferation (HL-60 cells; HL-60, EPZ4777 10 μM)	FLT3 expression ([2]; EPZ4777 10 μM, 7 days, all NPM1mut models)	HOX gene expression ([2]; EPZ4777 10 μM, 7 days, human and murine models)	cell proliferation and colony forming potential [3]	colony forming potential [4]	H3K79me2 marks (immunoblotting and ChIP-PCR) [5]	WBC counts at time of disease onset within the control group ([6]; cells treated ex vivo with EPZ4777 for 10 days)	survival of recipient animals ([6]; cells treated ex vivo with EPZ4777 for 10 days, versus vehicle)	survival compared to vehicle control [6]	specificity for DOT1L as compared to other methyl transferases (DOT1L)	cell proliferation (OCI-AML3 cells [1]; OCI-AML3, dose response, 11 days of MI-2-2 treatment)	cell growth inhibition (HL-60 cells; HL-60 (no NPM1mut or MLL-rearrangement), MI-2-2 dose response)	FLT3 transcript levels [2, 9]	HOXA, HOXB cluster and MEIS1 gene expression [2, 9]	CD11b expression (OCI-AML3 cells [7]) [%]	potency compared with MI-2-2 (dose response curves) (OCI-AML3 cells [1]; human and murine NPM1mut leukemia cells)	leukemia burden (percentage of bone marrow cells expressing human CD45) (OCI-AML3 cells [8]; 7 and 12 days)	HOXB4, MEIS1 and FLT3 expression in sorted human CD45 positive cells (OCI-AML3 cells [8])
CC(C)N(CCCNC(=O)Nc1ccc(C(C)(C)C)cc1)C[C@H]1O[C@@H](n2ccc3c(N)ncnc32)[C@H](O)[C@@H]1O [EPZ4777]	profound reduction	unaffected	dramatic suppression	significant repression	profound reduction	unaffected	global and HOXA and HOXB loci specific reduction	significantly lower WBC counts	significant survival advantage	significantly prolonged survival	highly specific for DOT1L								
CC1(C)CN=C(N2CCN(c3ncnc4sc(CC(F)(F)F)cc34)CC2)S1 [MI-2-2]												profound dose-dependent reduction in cell proliferation	only a mild cell growth inhibitory effect at higher doses	substantially and highly significantly suppressed	significant down regulation	72			
Cc1c(CN2CCC(Nc3ncnc4sc(CC(F)(F)F)cc34)CC2)ccc2c1cc(C#N)n2Cc1cn[nH]c1 [MI-503]										significantly prolonged survival							higher potency	significantly reduced	dramatic decrease of expression levels
